The values below come from patent US9573899B2, “USP7 inhibitor compounds and methods of use” (Genentech, Inc., priority 2015, dated 2017).

Molecules are shown by their SMILES. pIC50: −log10 of the molar value.

Assay [1] addresses T1, USP7, full-length, native C-Terminus (Homo sapiens, UniProt Q93009).
T1 construct: USP7, full-length, native C-Terminus, 0.2 nM
Kind of assay: Biochemical USP7 assay with Ubiquitin-Rho110 substrate (USP7_Ub-Rho110 Fluor). The conditions noted are these: no pre-incubation; 1 hour reaction at room temperature; read-out: USP7 Ub-Rho110 Fluor (IC50). On the procedure:
(§1) Biochemical USP7 assays using Ubiquitin-Rho110 as a substrate: The final assay conditions were as follows: The Reaction Buffer consisted of: 50 mM Tris (pH 7.5), 0.01% (v/v) Triton X-100, 2.5 mM Dithiothreitol, 0.1% (w/v) bovine gamma globulin (Sigma cat #G5009-25G); USP7, full-length, native C-Terminus, 0.2 nM; the substrate, Ubiquitin-Rho110 (Boston Biochem cat #U-555), 1 uM. Reactions were carried out for 1 hour at room temperature, in black 20 μL volume polystyrene ProxiPlate 384 F Plus® (PerkinElmer cat #6008260).
(§2) Test compounds, including a control USP7 inhibitor (Ub-aldehyde, Boston Biochem cat #U-201) were serially diluted in DMSO, in 384 well clear V-bottom polypropylene plates (Greiner cat #781280). Compounds in DMSO were diluted 10-fold into Reaction Buffer, to achieve 3-fold the final desired concentration. The substrate, Ubiquitin-Rho110 (Boston Biochem cat #U-555), was prepared at 3 μM (3-fold the final concentration) and 5 ul was dispensed into the reaction plate. 5 ul of the compounds (diluted in Reaction Buffer at 3-fold the final concentration) were transferred to the reaction plate. 5 ul of 0.6 nM USP7 (diluted in Reaction Buffer at 3-fold the final concentration) was transferred to the reaction plate to initiate the reaction. After 1 hour incubation at room temperature the reaction was quenched by the addition of 5 ul of 400 mM acetic acid. The enzymatic product was measured by quantifying the fluorescence signal of cleaved Rhodamine-110 using excitation at 485 nm and emission at 535 nm. When pre-incubation of USP7 with compounds was required, the order of addition of reagents was modified to pre-mix the compounds with USP7 (with a 1 hour incubation period), prior to the addition of the substrate and the initiation of the reaction period. Percentage inhibition values were calculated relative to a no enzyme control and a uninhibited enzyme control. Curve fitting and IC50 calculations were carried out using Genedata Screener software.

Assay [2] addresses T1, USP7, full-length, native C-Terminus. Put plainly: Biochemical USP7 assay with Ubiquitin-Rho110 substrate, compounds pre-incubated with USP7 (USP7_Ub-Rho preInc). The conditions noted are these: compounds pre-mixed with USP7, 1 hour incubation, before substrate; read-out: USP7 Ub-Rho preInc (IC50). On the procedure: as §1, §2

T1 sequence (Q93009 whole entry): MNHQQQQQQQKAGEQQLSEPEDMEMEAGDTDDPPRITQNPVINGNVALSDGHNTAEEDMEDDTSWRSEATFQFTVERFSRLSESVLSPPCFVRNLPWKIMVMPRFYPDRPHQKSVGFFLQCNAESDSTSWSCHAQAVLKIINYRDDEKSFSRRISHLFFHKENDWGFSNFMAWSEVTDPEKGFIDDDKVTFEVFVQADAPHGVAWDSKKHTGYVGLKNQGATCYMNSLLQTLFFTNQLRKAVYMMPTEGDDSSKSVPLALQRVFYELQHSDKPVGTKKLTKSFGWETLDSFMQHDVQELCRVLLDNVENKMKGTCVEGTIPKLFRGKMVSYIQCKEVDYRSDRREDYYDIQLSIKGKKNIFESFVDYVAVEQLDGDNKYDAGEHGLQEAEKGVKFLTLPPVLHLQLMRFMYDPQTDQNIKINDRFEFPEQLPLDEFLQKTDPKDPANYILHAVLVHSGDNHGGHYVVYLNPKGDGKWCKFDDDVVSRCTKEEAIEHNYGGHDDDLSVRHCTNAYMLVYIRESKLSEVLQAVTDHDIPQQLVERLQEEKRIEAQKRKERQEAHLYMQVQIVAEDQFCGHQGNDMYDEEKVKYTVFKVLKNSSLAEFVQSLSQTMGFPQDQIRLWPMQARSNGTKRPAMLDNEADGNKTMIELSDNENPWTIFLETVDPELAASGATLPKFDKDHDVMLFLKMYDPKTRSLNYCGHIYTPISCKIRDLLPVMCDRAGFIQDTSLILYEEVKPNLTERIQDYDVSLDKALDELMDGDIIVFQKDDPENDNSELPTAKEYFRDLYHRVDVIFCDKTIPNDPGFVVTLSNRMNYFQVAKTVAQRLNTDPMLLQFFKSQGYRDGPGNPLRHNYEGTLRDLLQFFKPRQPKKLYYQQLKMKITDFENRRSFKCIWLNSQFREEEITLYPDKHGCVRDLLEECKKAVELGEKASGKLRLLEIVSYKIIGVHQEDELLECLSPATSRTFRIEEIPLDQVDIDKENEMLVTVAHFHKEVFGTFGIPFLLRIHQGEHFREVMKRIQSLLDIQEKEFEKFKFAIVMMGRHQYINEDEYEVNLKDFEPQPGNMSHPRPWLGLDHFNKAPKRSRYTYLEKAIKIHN

Usually pIC50 stands for the IC50 on a negative log10 scale, so that one unit is a factor of ten. Take `Cc1c(-c2ccc(O)cc2)cnc(N)c1-c1ccc(O)cc1` [Compound 1, 4-[6-amino-5-(4-hydroxyphenyl)-4-methyl-3-pyridyl]phenol]: the pIC50 in assay [1] was 5.11. On to `CC(C)c1c(-c2ccc(O)cc2)cnc(N)c1-c1ccc(O)cc1` [Compound 3, 4-[6-amino-5-(4-hydroxyphenyl)-4-isopropyl-3-pyridyl]phenol], for which the pIC50 in assay [1] was 3.71. On the same count and under the same terms, the value for `COc1c(-c2ccc(O)cc2)cnc(N)c1-c1ccc(O)cc1` [Compound 4, 4-[6-amino-5-(4-hydroxyphenyl)-4-methoxy-3-pyridyl]phenol] was 4.54; that for `CCCc1c(-c2ccc(O)cc2)cnc(N)c1-c1ccc(O)cc1` [Compound 6, 4-[6-amino-5-(4-hydroxyphenyl)-4-propyl-3-pyridyl]phenol] was 4.45. Still for that read-out and setting: the value for `CCc1c(-c2ccc(O)cc2F)cnc(N)c1-c1ccc(O)cc1` [Compound 7, 4-[6-amino-4-ethyl-5-(4-hydroxyphenyl)-3-pyridyl]-3-fluoro-phenol] was 5.35; that for `CCc1c(-c2cccc(NC(C)=O)c2)cnc(N)c1-c1ccc(O)cc1` [Compound 8, N-[3-[6-amino-4-ethyl-5-(4-hydroxyphenyl)-3-pyridyl]phenyl]acetamide] was 4.35. For the compound `CCc1c(-c2ccc(O)cc2)cnc(N)c1-c1ccc2[nH]nc(C)c2c1` [Compound 59, 4-[6-amino-4-ethyl-5-(3-methyl-1H-indazol-5-yl)-3-pyridyl]phenol], in assay [2], the pIC50 is 4.71.

For `CCc1c(-c2ccc(C(=O)N3CCOCC3)cc2)cnc(N)c1-c1ccc(O)cc1` [Compound 60, [4-[6-amino-4-ethyl-5-(4-hydroxyphenyl)-3-pyridyl]phenyl]-morpholino-methanone], the pIC50 in assay [2] is 3.78. The same measure, in the same setting: the value for `CCc1c(-c2ccc(C#N)nc2)cnc(N)c1-c1ccc(O)cc1` [Compound 62, 5-[6-amino-4-ethyl-5-(4-hydroxyphenyl)-3-pyridyl]pyridine-2-carbonitrile] was 4.41; that for `CCc1c(-c2cncc(C#N)c2)cnc(N)c1-c1ccc(O)cc1` [Compound 63, 5-[6-amino-4-ethyl-5-(4-hydroxyphenyl)-3-pyridyl]pyridine-3-carbonitrile] was 4.93; that for `CCc1c(-c2cccc(C(=O)N3CCCC3)c2)cnc(N)c1-c1ccc(O)cc1` [Compound 64, [3-[6-amino-4-ethyl-5-(4-hydroxyphenyl)-3-pyridyl]phenyl]-pyrrolidin-1-yl-methanone] was < 4.20.

Consider `CCc1c(-c2ccc(C(=O)NC3CC3)cc2)cnc(N)c1-c1ccc(O)cc1` [Compound 65, 4-[6-amino-4-ethyl-5-(4-hydroxyphenyl)-3-pyridyl]-N-cyclopropyl-benzamide], for which the pIC50 in assay [2] was 5.11.

With `CCc1c(-c2cccc(CC#N)c2)cnc(N)c1-c1ccc(O)cc1` [Compound 66, 2-[3-[6-amino-4-ethyl-5-(4-hydroxyphenyl)-3-pyridyl]phenyl]acetonitrile], the negative-log IC50 (pIC50) in assay [2] is 4.74. Still for that read-out and setting: the result for `CCc1c(-c2ccc(C#N)c(F)c2)cnc(N)c1-c1ccc(O)cc1` [Compound 67, 4-[6-amino-4-ethyl-5-(4-hydroxyphenyl)-3-pyridyl]-2-fluoro-benzonitrile] reads 4.35; that for `CCc1c(-c2ccc(OC)nc2)cnc(N)c1-c1ccc(O)cc1` [Compound 68, 4-[2-amino-4-ethyl-5-(6-methoxy-3-pyridyl)-3-pyridyl]phenol], < 4.20; that for `CCc1c(-c2cccc(C(=O)NC(C)C)c2)cnc(N)c1-c1ccc(O)cc1` [Compound 69, 3-[6-amino-4-ethyl-5-(4-hydroxyphenyl)-3-pyridyl]-N-isopropyl-benzamide], < 4.20. The same measure, in the same setting: the value for `CCc1c(-c2ccc(CNS(C)(=O)=O)cc2)cnc(N)c1-c1ccc(O)cc1` [Compound 70, N-[[4-[6-amino-4-ethyl-5-(4-hydroxyphenyl)-3-pyridyl]phenyl]methyl]methanesulfonamide] was 4.46; that for `CCc1c(-c2cnn(CC(C)C)c2)cnc(N)c1-c1ccc(O)cc1` [Compound 71, 4-[2-amino-4-ethyl-5-(1-isobutylpyrazol-4-yl)-3-pyridyl]phenol] was 4.15; that for `CCc1c(-c2ccc(O)cc2)cnc(N)c1-c1ccc(O)c(C#N)c1` [Compound 72, 5-[2-amino-4-ethyl-5-(4-hydroxyphenyl)-3-pyridyl]-2-hydroxy-benzonitrile] was 4.90. Same read-out and setting: the result for `CCc1c(-c2ccnc(C)c2)cnc(N)c1-c1ccc(O)cc1` [Compound 73, 4-[2-amino-4-ethyl-5-(2-methyl-4-pyridyl)-3-pyridyl]phenol] reads 4.33; that for `CCc1c(-c2cccc(C(F)F)c2)cnc(N)c1-c1ccc(O)cc1` [Compound 74, 4-[2-amino-5-[3-(difluoromethyl)phenyl]-4-ethyl-3-pyridyl]phenol], 5.11.

With `CCc1c(-c2ccc(NC(C)=O)nc2)cnc(N)c1-c1ccc(O)cc1` [Compound 75, N-[5-[6-amino-4-ethyl-5-(4-hydroxyphenyl)-3-pyridyl]-2-pyridyl]acetamide], the pIC50 in assay [2] was 5.44. On the same count and under the same terms, the value for `CCc1c(-c2cc(F)cc(F)c2)cnc(N)c1-c1ccc(O)cc1` [Compound 76, 4-[2-amino-5-(3,5-difluorophenyl)-4-ethyl-3-pyridyl]phenol] was < 4.70. Same read-out and setting: the result for `CCc1c(-c2cccc(Cl)c2)cnc(N)c1-c1ccc(O)cc1` [Compound 77, 4-[2-amino-5-(3-chlorophenyl)-4-ethyl-3-pyridyl]phenol] reads 4.96; that for `CCc1c(-c2ccccc2Cl)cnc(N)c1-c1ccc(O)cc1` [Compound 78, 4-[2-amino-5-(2-chlorophenyl)-4-ethyl-3-pyridyl]phenol], 4.80; that for `CCc1c(-c2ccc(F)c(C)c2)cnc(N)c1-c1ccc(O)cc1` [Compound 79, 4-[2-amino-4-ethyl-5-(4-fluoro-3-methyl-phenyl)-3-pyridyl]phenol], < 4.70.

`CCc1c(-c2ccc(Cl)cc2)cnc(N)c1-c1ccc(O)cc1` [Compound 80, 4-[2-amino-5-(4-chlorophenyl)-4-ethyl-3-pyridyl]phenol]: in assay [2], the pIC50 is 4.75. Still for that read-out and setting: the value for `CCc1c(-c2cccc(CN3CCOCC3)c2)cnc(N)c1-c1ccc(O)cc1` [Compound 82, 4-[2-amino-4-ethyl-5-[3-(morpholinomethyl)phenyl]-3-pyridyl]phenol] was 4.74; that for `CCc1c(-c2cnc(OC)nc2)cnc(N)c1-c1ccc(O)cc1` [Compound 83, 4-[2-amino-4-ethyl-5-(2-methoxypyrimidin-5-yl)-3-pyridyl]phenol] was 3.87; that for `CCc1c(-c2ccc3cn[nH]c3c2)cnc(N)c1-c1ccc(O)cc1` [Compound 84, 4-[2-amino-4-ethyl-5-(1H-indazol-6-yl)-3-pyridyl]phenol] was 5.14. In the case of `CCc1c(-c2cccc3nn(C)cc23)cnc(N)c1-c1ccc(O)cc1` [Compound 85, 4-[2-amino-4-ethyl-5-(2-methylindazol-4-yl)-3-pyridyl]phenol], in assay [2], the pIC50 was 4.84. For the compound `CCc1c(-c2ccc3[nH]c(C)nc3c2)cnc(N)c1-c1ccc(O)cc1` [Compound 86, 4-[2-amino-4-ethyl-5-(2-methyl-1H-benzimidazol-5-yl)-3-pyridyl]phenol], in assay [2], the pIC50 is 4.87. For the compound `CCc1c(-c2ccc(O)cc2)cnc(N)c1-c1ccc2[nH]ncc2c1` [Compound 87, 4-[6-amino-4-ethyl-5-(1H-indazol-5-yl)-3-pyridyl]phenol], the pIC50 in assay [2] was 5.68.

As to `CCc1c(-c2cccc(N)c2)cnc(N)c1-c1ccc(O)cc1` [Compound 90, 4-[2-amino-5-(3-aminophenyl)-4-ethyl-3-pyridyl]phenol], the pIC50 in assay [2] was 4.72.

For the compound `CCc1c(-c2ccc(N)cc2)cnc(N)c1-c1ccc(O)cc1` [Compound 91, 4-[2-amino-5-(4-aminophenyl)-4-ethyl-3-pyridyl]phenol], the pIC50 in assay [2] was 4.33. On the same count and under the same terms, the value for `CCc1c(-c2ccc(O)cc2)cnc(N)c1-c1ccc2cn[nH]c2c1` [Compound 93, 4-[6-amino-4-ethyl-5-(1H-indazol-6-yl)-3-pyridyl]phenol] was 4.86; that for `CCc1c(-c2ccc(O)c(C#N)c2)cnc(N)c1-c1ccc(O)cc1` [Compound 94, 5-[6-amino-4-ethyl-5-(4-hydroxyphenyl)-3-pyridyl]-2-hydroxy-benzonitrile] was 5.02. Same read-out and setting: the value for `CCc1c(-c2ccc(O)c(C(N)=O)c2)cnc(N)c1-c1ccc(O)cc1` [Compound 95, 5-[6-amino-4-ethyl-5-(4-hydroxyphenyl)-3-pyridyl]-2-hydroxy-benzamide] was 3.97.
